Experimental data published in US10821115B2, “Compounds that inhibit Mcl-1 protein” (priority 2017, dated 2020).
Like-named read-outs stand apart in the source and are kept apart here.

Key:
[1] = target: recombinant human Mcl-1 (residues 171-327) / Bim interaction (Homo sapiens (Human), UniProt Q07820); experiment: biochemical; format: binding; details: read-out: Mcl-1 HTRF IC50
[2] = system: human multiple myeloma cell line, OPM-2; experiment: Cell viability assay (OPM-2 10 FBS), CellTiter-Glo; format: cell-based
Method in brief: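 IC50 values come from 4-parameter logistic fits of luminescence signals reflecting cell viability. Treatment lasted 16 h at 37 °C in complete medium with 10% FBS, starting from 3000 cells/well.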

[3] = TR-FRET, Mcl-1(171-327) / biotin-Bim (51-76)
[4] = Homo sapiens, OPM-2, 16 h, read-out: OPM-2 10% FBS IC50 IP, OPM-2 cells, 10% FBS, 16 h, CellTiter-Glo
[5] = 0.1 nM Mcl-1(171-327), 0.05 nM biotin-Bim (51-76)
[6] = Homo sapiens, OPM-2, 16 h, read-out: OPM-2 10% FBS IC50 IP, OPM-2 cells, 10% FBS, 16 h incubation
[7] = read-out: OPM-2 10% FBS IC50 IP, OPM-2 cells, 10% FBS, 16 h incubation

Sequence of recombinant human Mcl-1 (residues 171-327) / Bim interaction (Q07820 171-327): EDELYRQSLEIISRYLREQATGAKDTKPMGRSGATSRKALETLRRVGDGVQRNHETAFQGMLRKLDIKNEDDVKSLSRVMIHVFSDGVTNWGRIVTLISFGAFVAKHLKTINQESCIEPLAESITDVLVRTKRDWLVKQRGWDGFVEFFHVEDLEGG

`CO[C@@]1(CCOS(C)(=O)=O)/C=C/C[C@H](C)[C@@H](C)S(=O)(=O)NC(=O)c2ccc3c(c2)N(C[C@@H]2CC[C@H]21)C[C@@]1(CCCc2cc(Cl)ccc21)CO3` [Example 100364, 2-((1S,3′R,6′R,7′S,8′E,11′S,12′R)-6-chloro-7′-methoxy-11′,12′-dimethyl-13′,13′-dioxido-15′-oxo-3,4-dihydro-2H-spiro[naphthalene-1,22′-[20]oxa[13]thia[1,14]diazatetracyclo [14.7.2.0~3,6~.0~19,24~]pentacosa[8,16,18,24]tetraen]-7′-yl)ethyl methanesulfonate] showed an IC50 [1, 3] of 1.16 nM and an IC50 [2, 4] of 1680 nM.

Compound `C[C@@H]1[C@@H](C)CCC[C@@]2(C[C@H](C)C(=O)O2)[C@@H]2CC[C@H]2CN2C[C@@]3(CCCc4cc(Cl)ccc43)COc3ccc(cc32)C(=O)NS1(=O)=O` (stereo in doubt) [Example 100129] has an IC50 [1, 3] of 2.4 nM and an IC50 [2, 4] of 4870 nM.

Compound `CO[C@]1(CN2CCN(CCS(C)(=O)=O)CC2)/C=C/C[C@H](C)[C@@H](C)S(=O)(=O)NC(=O)c2ccc3c(c2)N(C[C@@H]2CC[C@H]21)C[C@@]1(CCCc2cc(Cl)ccc21)CO3` [Example 73, (1S,3′R,6′R,7′R,8′E,11′S,12′R)-6-chloro-7′-methoxy-11′,12′-dimethyl-7′-((4-(2-(methylsulfonyl)ethyl)-1-piperazinyl)methyl)-3,4-dihydro-2H,15′H-spiro[naphthalene-1,22′-[20]oxa[13]thia[1,14]diazatetracyclo [14.7.2.0~3,6~.0~19,24~]pentacosa[8,16,18,24]tetraen]-15′-one 13′,13′-dioxide] has an IC50 [1, 5] of 0.609 nM and an IC50 [2, 6] of 129 nM.

With `C[C@@H]1[C@@H](C)C/C=C/C(O)(Cc2nccn2C)[C@@H]2CC[C@H]2CN2C[C@@]3(CCCc4cc(Cl)ccc43)COc3ccc(cc32)C(=O)NS1(=O)=O` (stereo in doubt) [Example 100523, (1S,3′R,6′R,7′S,8′E,11′S,12′R)-6-chloro-7′-hydroxy-11′,12′-dimethyl-7′-((1-methyl-1H-imidazol-2-yl)methyl)-3,4-dihydro-2H,15′H-spiro[naphthalene-1,22′-[20]oxa[13]thia[1,14]diazatetracyclo [14.7.2.0~3,6~.0~19,24~]pentacosa[8,16,18,24]tetraen]-15′-one 13′,13′-dioxide] the IC50 [1, 3] was 0.812 nM and the IC50 [2, 4] was 622 nM.

Compound `CC[C@@H]1CCCC[C@@](O)(COC)[C@@H]2CC[C@H]2CN2C[C@@]3(CCCc4cc(Cl)ccc43)COc3ccc(cc32)C(=O)NS1(=O)=O` [Example 100039, (1S,3′R,6′R,7′S,12′R)-6-chloro-12′-ethyl-7′-hydroxy-7′-(methoxymethyl)-3,4-dihydro-2H,15′H-spiro[naphthalene-1,22′-[20]oxa[13]thia[1,14]diazatetracyclo [14.7.2.0~3,6~.0~19,24~]pentacosa[16,18,24]trien]-15′-one 13′,13′-dioxide] has an IC50 [1, 3] of 0.563 nM and an IC50 [2, 4] of 744 nM.

`CO[C@]1(CN2CC3(C2)CS(=O)(=O)C3)/C=C/C[C@H](C)[C@@H](C)S(=O)(=O)NC(=O)c2ccc3c(c2)N(C[C@@H]2CC[C@H]21)C[C@@]1(CCCc2cc(Cl)ccc21)CO3` [Example 224, (1S,3′R,6′R,7′R,8′E,11′S,12′R)-6-chloro-7′-((2,2-dioxido-2-thia-6-azaspiro[3.3]hept-6-yl)methyl)-7′-methoxy-11′,12′-dimethyl-3,4-dihydro-2H,15′H-spiro[naphthalene-1,22′-[20]oxa[13]thia[1,14]diazatetracyclo [14.7.2.0~3,6~.0~19,24~]pentacosa[8,16,18,24]tetraen]-15′-one 13′,13′-dioxide] showed an IC50 [1, 5] of 0.127 nM and an IC50 [2, 6] of 157 nM.

For `CO[C@]1(CN2CCN3CCC(F)(F)C[C@@H]3C2)/C=C/C[C@H](C)[C@@H](C)S(=O)(=O)NC(=O)c2ccc3c(c2)N(C[C@@H]2CC[C@H]21)C[C@@]1(CCCc2cc(Cl)ccc21)CO3` [Example 292], the IC50 [1, 5] was 0.356 nM and the IC50 [2, 7] was 399 nM.

For `CO[C@]1(CN2CCN3CC[C@H](F)C[C@@H]3C2)/C=C/C[C@H](C)[C@@H](C)S(=O)(=O)NC(=O)c2ccc3c(c2)N(C[C@@H]2CC[C@H]21)C[C@@]1(CCCc2cc(Cl)ccc21)CO3` (single isomer, unassigned) [Example 326], the IC50 [1, 5] was 0.307 nM and the IC50 [2, 7] was 488 nM.

For `CO[C@@]1(CC(=O)N2CCCC2)/C=C/C[C@H](C)[C@@H](C)S(=O)(=O)NC(=O)c2ccc3c(c2)N(C[C@@H]2CC[C@H]21)C[C@@]1(CCCc2cc(Cl)ccc21)CO3` [Example 100010, (1 S,3′R,6′R,7′S,8′E,11′S, 12′R)-6-chloro-7′-methoxy-11′,12′-dimethyl-7′-(2-oxo-2-(1-pyrrolidinyl)ethyl)-3,4-dihydro-2H, 15′H-spiro[naphthalene-1,22′-[20]oxa[13]thia[1,14]diazatetracyclo[14.7.2.0-3,6˜.0˜19,24˜]pentacosa[8,16,18,24]tetraen]-15′-one 13′,13′-dioxide], the IC50 [1, 3] was 0.077 nM and the IC50 [2, 4] was 142 nM.

Compound `CO[C@]1(CN2CCC(N3CCOCC3)CC2)/C=C/C[C@H](C)[C@@H](C)S(=O)(=O)NC(=O)c2ccc3c(c2)N(C[C@@H]2CC[C@H]21)C[C@@]1(CCCc2cc(Cl)ccc21)CO3` [Example 85, (1S,3′R,6′R,7′R,8′E,11′S,12′R)-6-chloro-7′-methoxy-11′,12′-dimethyl-7′-((4-(4-morpholinyl)-1-piperidinyl)methyl)-3,4-dihydro-2H,15′H-spiro[naphthalene-1,22′-[20]oxa[13]thia[1,14]diazatetracyclo [14.7.2.0~3,6~.0~19,24~]pentacosa[8,16,18,24]tetraen]-15′-one 13′,13′-dioxide] has an IC50 [1, 5] of 0.491 nM and an IC50 [2, 6] of 274 nM.

For `C[C@@H]1[C@@H](C)C/C=C/[C@]2(CCCO2)[C@@H]2CC[C@H]2CN2C[C@@]3(CCCc4cc(Cl)ccc43)COc3ccc(cc32)C(=O)NS1(=O)=O` (stereo in doubt) [Example 100132], the IC50 [1, 3] was 0.543 nM and the IC50 [2, 4] was 675 nM.

`CO[C@]1(CN2CCOCC2)/C=C/C[C@H](C)[C@@H](C)S(=O)(=O)NC(=O)c2ccc3c(c2)N(C[C@@H]2CC[C@H]21)C[C@@]1(CCCc2cc(Cl)ccc21)CO3` [Example 53, (1S,3′R,6′R,7′R,8′E,11′S,12′R)-6-chloro-7′-methoxy-11′,12′-dimethyl-7′-(4-morpholinylmethyl)-3,4-dihydro-2H,15′H-spiro[naphthalene-1,22′-[20]oxa[13]thia[1,14]diazatetracyclo [14.7.2.0~3,6~.0~19,24~]pentacosa[8,16,18,24]tetraen]-15′-one 13′,13′-dioxide] was tested, and the IC50 [1, 5] was 0.336 nM and the IC50 [2, 6] was 290 nM.

`CO[C@]1(CN2CCN(C)CC2)/C=C/C[C@H](C)[C@@H](C)S(=O)(=O)NC(=O)c2ccc3c(c2)N(C[C@@H]2CC[C@H]21)C[C@@]1(CCCc2cc(Cl)ccc21)CO3` [Example 62] showed an IC50 [1, 5] of 0.115 nM and an IC50 [2, 6] of 110 nM.

`C=CC(=O)N1CCN2CCN(C[C@]3(OC)/C=C/C[C@H](C)[C@@H](C)S(=O)(=O)NC(=O)c4ccc5c(c4)N(C[C@@H]4CC[C@H]43)C[C@@]3(CCCc4cc(Cl)ccc43)CO5)C[C@H]2C1` [Example 234] gave an IC50 [1, 5] of 0.163 nM and an IC50 [2, 7] of 71 nM.

`CO[C@]1(c2nccs2)/C=C/C[C@H](C)[C@@H](C)S(=O)(=O)NC(=O)c2ccc3c(c2)N(C[C@@H]2CC[C@H]21)C[C@@]1(CCCc2cc(Cl)ccc21)CO3` (single isomer, unassigned) [Example 100522] gave an IC50 [1, 3] of 0.144 nM and an IC50 [2, 4] of 538 nM.

`CO[C@@]1(CN2CCN3CC[C@H](F)C[C@@H]3C2)/C=C/C[C@H](C)[C@@H](C)S(=O)(=O)NC(=O)c2ccc3c(c2)N(C[C@@H]2CC[C@H]21)C[C@@]1(CCCc2cc(Cl)ccc21)CO3` (single isomer, unassigned) [Example 283] gave an IC50 [1, 5] of 0.354 nM and an IC50 [2, 7] of 839 nM.

With `COCC[C@@H]1[C@@H](C)C/C=C/[C@](CN2CCN(C(C)(C)COC)CC2)(OC)[C@@H]2CC[C@H]2CN2C[C@@]3(CCCc4cc(Cl)ccc43)COc3ccc(nc32)C(=O)NS1(=O)=O` [Example 27, (1S,3′R,6′R,7′S,8′E,11′S,12′R)-6-chloro-7′-methoxy-7′-((4-(2-methoxy-1,1-dimethylethyl)-1-piperazinyl)methyl)-12′-(2-methoxyethyl)-11′-methyl-3,4-dihydro-2H,15′H-spiro[naphthalene-1,22′-[20]oxa[13]thia[1,14,25]triazatetracyclo [14.7.2.0~3,6~.0~19,24~]pentacosa[8,16,18,24]tetraen]-15′-one 13′,13′-dioxide] the IC50 [1, 5] was 0.095 nM and the IC50 [2, 6] was 29 nM.

`CO[C@]1(CN2C[C@@H](C)N(C)[C@@H](C)C2)/C=C/C[C@H](C)[C@@H](C)S(=O)(=O)NC(=O)c2ccc3c(c2)N(C[C@@H]2CC[C@H]21)C[C@@]1(CCCc2cc(Cl)ccc21)CO3` [Example 336, (1S,3′R,6′R,7′R,8′E,11′S,12′R)-6-chloro-7′-methoxy-11′,12′-dimethyl-7′-(((3R,5S)-3,4,5-trimethyl-1-piperazinyl)methyl)-3,4-dihydro-2H,15′H-spiro[naphthalene-1,22′-[20]oxa[13]thia[1,14]diazatetracyclo [14.7.2.0~3,6~.0~19,24~]pentacosa[8,16,18,24]tetraen]-15′-one 13′,13′-dioxide] was tested, and the IC50 [1, 5] was 0.085 nM and the IC50 [2, 6] was 51 nM.

`C[C@@H]1[C@@H](C)C/C=C/[C@](O)(COCCN2CCOCC2)[C@@H]2CC[C@H]2CN2C[C@@]3(CCCc4cc(Cl)ccc43)COc3ccc(cc32)C(=O)NS1(=O)=O` [Example 100356, (1S,3′R,6′R,7′R,8′E,11′S,12′R)-6-chloro-7′-hydroxy-11′,12′-dimethyl-7′-((2-(4-morpholinyl)ethoxy)methyl)-3,4-dihydro-2H,15′H-spiro[naphthalene-1,22′-[20]oxa[13]thia[1,14]diazatetracyclo [14.7.2.0~3,6~.0~19,24~]pentacosa[8,16,18,24]tetraen]-15′-one 13′,13′-dioxide] showed an IC50 [1, 3] of 0.084 nM and an IC50 [2, 4] of 71 nM.
